In PMC9376091, “Identification of small molecules targeting homoserine acetyl transferase from Mycobacterium tuberculosis and Staphylococcus aureus” (Scientific Reports, 2022):

Key:
[1] = molecular target: T1, HSAT, MetX, Rv3341, (His)6-MetX, (His)6-Rv3341 (Mycobacterium tuberculosis, UniProt P9WJY9); experiment: DTNB CoA release endpoint assay; format: biochemical
T1 construct: gene metXA

[2] = molecular target: T2, S. aureus HSAT, HSAT homolog from S. aureus (Staphylococcus aureus, UniProt A0A447ZIT7); experiment: DTNB CoA release endpoint assay; format: biochemical; conditions: 1.0 mM L-homoserine, 1.0 mM acetyl-CoA, 5.0 mM MgCl2, Tris-Cl pH 7.4, 37 °C
T2 construct: gene metX; cloned in pET28b (His tag implied), expressed in E. coli BL-21 (DE3, plysS), Ni-NTA and gel filtration; 4QLO used for docking
T2 sequence (A0A447ZIT7 1-322): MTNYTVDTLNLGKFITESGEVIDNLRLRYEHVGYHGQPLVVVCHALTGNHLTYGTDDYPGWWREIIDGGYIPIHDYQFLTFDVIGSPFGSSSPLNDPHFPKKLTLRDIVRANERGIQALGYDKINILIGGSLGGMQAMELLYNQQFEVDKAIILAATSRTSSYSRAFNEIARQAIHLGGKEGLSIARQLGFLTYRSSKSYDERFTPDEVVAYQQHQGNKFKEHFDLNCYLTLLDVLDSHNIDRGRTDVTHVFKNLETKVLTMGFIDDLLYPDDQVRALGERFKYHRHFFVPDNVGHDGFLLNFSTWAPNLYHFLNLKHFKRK

T1 sequence (P9WJY9 whole entry, looked up): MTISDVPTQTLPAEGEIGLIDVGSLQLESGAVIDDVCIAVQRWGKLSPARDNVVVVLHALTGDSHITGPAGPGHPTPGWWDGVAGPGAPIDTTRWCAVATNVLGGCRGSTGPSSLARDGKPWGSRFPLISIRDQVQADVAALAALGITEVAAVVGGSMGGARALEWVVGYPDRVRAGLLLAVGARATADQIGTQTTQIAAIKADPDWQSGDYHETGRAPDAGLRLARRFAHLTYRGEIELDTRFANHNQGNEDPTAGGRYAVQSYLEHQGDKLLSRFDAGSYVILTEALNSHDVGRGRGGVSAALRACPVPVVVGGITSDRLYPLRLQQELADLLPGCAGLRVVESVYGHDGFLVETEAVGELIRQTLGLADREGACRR

Row | Structure (SMILES) | inhibition at 100 µM [1] [%] | % inhibition at 100 μM [2] [%] | % inhibition at 100 μM ([1]; 1.0 mM L-homoserine, 1.0 mM acetyl-CoA, 5.0 mM MgCl2, Tris-Cl pH 7.4, 37 °C) [%]
1 | CCOC(=O)/C(C#N)=C1\SS/C(=C(/C#N)C(=O)OCC)S1 [compound 2, NSC98363] | > 50 |  | 
2 | Oc1cc(CNC2CCCCC2)c(O)cc1CNC1CCCCC1 [compound 3, NSC48443] | > 50 | > 60 | 
3 | C/C(=N\NC(=S)N(C)C)c1ccccn1.[Cu][Br] [compound 4, NSC635448] |  | > 60 | > 50
4 | Cc1ccc(S(=O)(=O)SC/C=C/CSS(=O)(=O)c2ccc(C)cc2)cc1 [compound 5, NSC624158] | > 50 | > 60 | 
5 | COc1cc(-c2ccc(Nc3ccccc3C(=O)O)c(OC)c2)ccc1Nc1ccccc1C(=O)O [compound 6, NSC73735] | > 50 |  | 
6 | O=Nc1c(-c2cccc([N+](=O)[O-])c2)nc2ncccn12 [compound 7, NSC369066] | > 50 |  | 
7 | Oc1cc(-n2cccn2)c(O)cc1-n1cccn1 [compound 8, NSC645987] | > 50 |  | 
